Measurements as given in patent US8912189B2, “Pyridopyrazine derivatives and their use” (Aeterna Zentaris GmbH, priority 2011, dated 2014).

Experiments:
Erk2 = target: T1, Erk2; assay: Cell-free kinase assay (ALPHA technology), Erk2; assay type: biochemical; settings: at 10 μM ATP; recombinant human kinase
T1 construct: partly as full-length kinases, partly as shortened fragments, but at least consisting of the functional kinase domains; purchased Upstate 14-173

PI3Kalpha = target: T2, PI3Kalpha (Homo sapiens, UniProt P42336); assay: Cell-free kinase assay (ALPHA technology), PI3Kalpha; assay type: biochemical; settings: at 100 μM ATP; recombinant human kinase
T2 construct: partly as full-length kinases, partly as shortened fragments, but at least consisting of the functional kinase domains; purchased Upstate 14-602
T2 sequence (P42336 whole entry, the tested form may be a part): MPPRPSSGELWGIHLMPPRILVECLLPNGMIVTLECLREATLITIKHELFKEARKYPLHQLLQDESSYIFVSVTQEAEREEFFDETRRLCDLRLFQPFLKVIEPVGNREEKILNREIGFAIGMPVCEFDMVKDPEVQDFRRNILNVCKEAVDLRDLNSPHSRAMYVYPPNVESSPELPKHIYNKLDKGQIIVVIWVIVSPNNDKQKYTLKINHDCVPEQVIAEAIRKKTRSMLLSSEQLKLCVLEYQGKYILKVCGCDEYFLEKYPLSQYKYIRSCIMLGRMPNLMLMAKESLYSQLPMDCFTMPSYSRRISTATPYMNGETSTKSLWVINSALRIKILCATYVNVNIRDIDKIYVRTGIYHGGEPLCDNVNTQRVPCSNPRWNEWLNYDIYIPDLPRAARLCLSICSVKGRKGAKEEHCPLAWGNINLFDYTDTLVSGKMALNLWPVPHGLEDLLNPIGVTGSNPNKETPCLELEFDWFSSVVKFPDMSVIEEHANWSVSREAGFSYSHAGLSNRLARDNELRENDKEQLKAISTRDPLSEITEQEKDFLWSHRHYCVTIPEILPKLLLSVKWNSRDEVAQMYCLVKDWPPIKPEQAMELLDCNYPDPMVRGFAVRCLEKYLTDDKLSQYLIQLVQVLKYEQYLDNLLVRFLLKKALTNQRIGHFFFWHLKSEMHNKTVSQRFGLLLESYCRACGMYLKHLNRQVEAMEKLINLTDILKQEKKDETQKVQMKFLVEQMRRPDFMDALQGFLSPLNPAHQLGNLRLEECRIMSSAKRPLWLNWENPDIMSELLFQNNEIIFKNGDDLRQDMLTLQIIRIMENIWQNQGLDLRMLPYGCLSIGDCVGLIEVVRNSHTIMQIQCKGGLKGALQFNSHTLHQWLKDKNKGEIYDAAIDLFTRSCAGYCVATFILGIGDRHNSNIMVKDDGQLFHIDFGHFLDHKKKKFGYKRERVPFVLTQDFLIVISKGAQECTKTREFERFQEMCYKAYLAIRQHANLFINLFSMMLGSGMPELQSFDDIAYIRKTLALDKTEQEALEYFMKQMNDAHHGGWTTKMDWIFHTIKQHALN
T2 sequence (P27986 whole entry partner, the tested form may be a part): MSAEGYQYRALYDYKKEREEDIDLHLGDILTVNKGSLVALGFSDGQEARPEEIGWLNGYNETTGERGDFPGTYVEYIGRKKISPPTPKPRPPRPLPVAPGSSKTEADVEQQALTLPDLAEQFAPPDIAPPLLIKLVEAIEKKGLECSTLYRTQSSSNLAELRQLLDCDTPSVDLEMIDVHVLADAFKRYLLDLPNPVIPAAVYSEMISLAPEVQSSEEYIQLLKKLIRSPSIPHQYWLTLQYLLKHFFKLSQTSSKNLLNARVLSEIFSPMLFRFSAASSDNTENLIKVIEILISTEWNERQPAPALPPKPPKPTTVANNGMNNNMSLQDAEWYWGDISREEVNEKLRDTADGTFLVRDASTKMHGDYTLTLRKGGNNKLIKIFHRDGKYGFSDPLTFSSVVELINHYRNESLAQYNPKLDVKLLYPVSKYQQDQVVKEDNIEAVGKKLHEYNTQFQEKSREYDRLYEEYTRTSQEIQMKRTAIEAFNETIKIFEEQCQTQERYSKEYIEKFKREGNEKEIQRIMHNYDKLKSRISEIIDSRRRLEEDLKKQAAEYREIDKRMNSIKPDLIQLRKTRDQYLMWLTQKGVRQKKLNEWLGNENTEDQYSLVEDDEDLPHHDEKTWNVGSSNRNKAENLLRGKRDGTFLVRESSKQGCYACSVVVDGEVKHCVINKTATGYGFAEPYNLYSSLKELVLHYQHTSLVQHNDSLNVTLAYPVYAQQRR
Experimental: The inhibitory effect of the compounds according to the invention was tested on various serine/threonine, tyrosine and lipid kinases in enzymatic assays. Recombinant human kinases such as, for example, Erk2, PI3Kalpha and others were used in this case, partly as full-length kinases, partly as shortened fragments, but at least consisting of the functional kinase domains. The commercial kinase proteins (Proqinase, Upstate) were used as recombinant fusion proteins with GST (glutathion-S-transferase) or His-Tag. Depending on the type of substrate, the various kinase reactions were quantified by means of suitable ALPHA™ beads (Perkin-Elmer).
The substance testing is described in detail hereinafter for the Erk assay. To determine the IC50 value, the potential inhibitor substances were investigated in 10 semi-logarithmically graded concentrations of 3.16 nM-100 μM.
b) PI3K-ALPHAs (e.g. PI3Kalpha): the test substance, 1 ng PI3Kalpha (#14-602, Upstate), 100 μM ATP and 20 μM PIP2 substrate (#64910, Cayman Chemicals) were incubated on a 384-well Optiplate (Perkin-Elmer) for 1 h in 50 mM Hepes, 50 mM NaCl, 5 mM MgCl2, 0.05% Chaps, 5 mM DTT at pH 7.4. The kinase reaction was then stopped by adding ALPHA bead mixes (10 μg/ml, #6760603/Perkin-Elmer) pre-incubated with 1 nM GST:Grp1 fusion protein (Upstate) and 15 nM biotinylated PIP3 (#10009531, Cayman Chemicals) in 50 mM Hepes, 50 mM NaCl, 50 mM EDTA and 0.1% BSA and left to stand overnight.
The fluorescence was detected the following morning in a Envision plate reader (Perkin-Elmer).
The %-inhibition values per substance concentration were calculated by means of the following formula from the raw data determined in the Envision plate reader:
Eight determinations were made for each control and two for the substance samples. The 0% control either contains no ATP or no substrate, the 100% control (fully active kinase) contains no test substance. The IC50 values were determined using GraphPadPrism.

Hct116 = assay: XTT assay, anti-proliferative effect; assay type: cell-based; settings: Homo sapiens, HCT-116; Hct116 cells, ~48 h incubation
Experimental: The principle of this test is based on the intracellular reduction of the tetrazolium dye XTT (sodium 3′-[1-(phenylaminocarbonyl)-3,4-tetrazolium]-bis(4-methoxy-6-nitro)benzene sulfonic acid, Sigma) to a formazan dye by mitochondrial dehydrogenases. The dye is only formed by metabolically active cells and its photometrically measurable intensity is a quantitative indicator for the presence of living cells. The reduction of dye formation by incubation of the cells with substances serves as a parameter for the anti-proliferative effect.
The tumour cell lines (ATCC) were injected into 96-well microtitre plates in a defined cell number (1250 cells/well for Hct116) and then incubated overnight in an incubator at 37° C., 5% CO2 and 95% air humidity. The test substances were prepared as stock solutions (10 mM) in DMSO. To determine the EC50 values the potential inhibitor substances were added to the cells in half-logarithmically graded dilutions, resulting in final concentrations of 1.58 nM-50 μM. The cell plates were then incubated for ˜48 h in an incubator at 37° C., 5% CO2 and 95% air humidity.
For the detection reaction the substrate XTT was mixed with PMS (N-Methyl dibenzopyrazine methylsulfate, Sigma) and added to the cells so that a final concentration of 325 μg XTT/ml and 2.5 μg PMS/ml was obtained. It was then incubated for 3 h at 37° C., 95% air humidity. The formazan salt formed by the cellular dehydrogenases could then be quantified by adsorption at 490 nm.
The % inhibition value was evaluated by means of the following formula from the values for the optical densities measured in each case at 490 nm:
Eight determinations were made for each control and two for the substance samples. The 0% control contains no cells, the 100% control (proliferation control) contains no test substance. The EC50 values were determined using GraphPadPrism.

T1 sequence (P63085 2-358 limits assumed): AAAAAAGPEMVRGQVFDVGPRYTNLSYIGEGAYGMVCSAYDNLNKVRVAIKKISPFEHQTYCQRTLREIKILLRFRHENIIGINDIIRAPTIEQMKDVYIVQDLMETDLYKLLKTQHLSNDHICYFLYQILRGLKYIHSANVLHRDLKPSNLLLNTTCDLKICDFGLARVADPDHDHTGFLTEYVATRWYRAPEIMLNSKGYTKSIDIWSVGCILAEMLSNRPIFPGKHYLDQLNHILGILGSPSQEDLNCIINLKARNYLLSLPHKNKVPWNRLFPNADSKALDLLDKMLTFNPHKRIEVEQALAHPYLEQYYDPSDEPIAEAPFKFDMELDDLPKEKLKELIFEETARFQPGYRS

| Compound | IC50 (Erk2) [nM] | IC50 (PI3Kalpha) [nM] | EC50 (Hct116) [nM] | melting point |
| --- | --- | --- | --- | --- |
| CCNC(=O)Nc1ccc2ncc(-c3cnn(Cc4ccc(F)c(Cl)c4)c3)nc2n1 [Compound 8, 1-{3-[1-(3-Chloro-4-fluoro-benzyl)-1H-pyrazol-4-yl]-pyrido[2,3-b]pyrazin-6-yl}-3-ethyl-urea] |  |  |  | 214 to 219 °C |
| Cc1cccc(Cn2cc(-c3cnc4ccc(NC(=S)NCC(F)(F)F)nc4n3)cn2)c1 [Compound 51, 1-{3-[1-(3-Methyl-benzyl)-1H-pyrazol-4-yl]-pyrido[2,3-b]pyrazin-6-yl}-3-(2,2,2-trifluoro-ethyl)-thiourea] |  |  |  | 249 °C |
| CCNC(=O)Nc1ccc2ncc(-c3csc(C(=O)O)c3)nc2n1 [Compound 212, 4-[6-(3-Ethyl-ureido)-pyrido[2,3-b]pyrazin-3-yl]-thiophene-2-carboxylic acid] |  |  |  | 250 °C (dec.) |
| CCNC(=S)Nc1ccc2ncc(-c3cnn(CCc4ccccc4)c3)nc2n1 [Compound 53, 1-Ethyl-3-[3-(1-phenethyl-1H-pyrazol-4-yl)-pyrido[2,3-b]pyrazin-6-yl]-thiourea] |  |  |  | 231 to 233 °C |
| CCNC(=O)Nc1ccc2ncc(-c3cnn(Cc4cc(OC)c(OC)c(OC)c4)c3)nc2n1 [Compound 1, 1-Ethyl-3-{3-[1-(3,4,5-trimethoxy-benzyl)-1H-pyrazol-4-yl]-pyrido[2,3-b]pyrazin-6-yl}-urea] |  |  |  | 219 °C |
| CCNC(=O)Nc1ccc2ncc(-c3cnn(Cc4cccc(C)c4)c3)nc2n1 [Compound 13, 1-Ethyl-3-{3-[1-(3-methyl-benzyl)-1H-pyrazol-4-yl]-pyrido[2,3-b]pyrazin-6-yl}-urea] |  |  |  | 208 to 210 °C |
| CCNC(=O)Nc1ccc2ncc(-c3cnn(CCCCc4ccccc4)c3)nc2n1 [Compound 16, 1-Ethyl-3-{3-[1-(4-phenyl-butyl)-1H-pyrazol-4-yl]-pyrido[2,3-b]pyrazin-6-yl}-urea] |  |  |  | 182 °C |
| COCCNC(=S)Nc1ccc2ncc(-c3cnn(Cc4cccc(OC)c4)c3)nc2n1 [Compound 32, 1-{3-[1-(3-Methoxy-benzyl)-1H-pyrazol-4-yl]-pyrido[2,3-b]pyrazin-6-yl}-3-(2-methoxy-ethyl)-thiourea] |  |  |  | 215 °C |
| COCNC(=S)Nc1ccc2ncc(-c3cnn(Cc4cccc(OC)c4)c3)nc2n1 [Compound 33, 1-{3-[1-(3-Methoxy-benzyl)-1H-pyrazol-4-yl]-pyrido[2,3-b]pyrazin-6-yl}-3-methoxymethyl-thiourea] |  |  |  | 187 °C |
| CCNC(=S)Nc1ccc2ncc(-c3cnn(Cc4cccc(OC(F)F)c4)c3)nc2n1 [Compound 27, 1-{3-[1-(3-Difluoromethoxy-benzyl)-1H-pyrazol-4-yl]-pyrido[2,3-b]pyrazin-6-yl}-3-ethyl-thiourea] | 750 | 59 | 1530 |  |
| CCNC(=O)Nc1ccc2ncc(-c3cnn(Cc4ccc(Br)c(C)c4)c3)nc2n1 [Compound 22, 1-{3-[1-(4-Bromo-3-methyl-benzyl)-1H-pyrazol-4-yl]-pyrido[2,3-b]pyrazin-6-yl}-3-ethyl-urea] |  |  |  | 250 to 252 °C |

Further lines, results first:

| IC50 (Erk2) [nM] | IC50 (PI3Kalpha) [nM] | EC50 (Hct116) [nM] | melting point | Compound |
| --- | --- | --- | --- | --- |
| 272 | 249 | 1950 | 252 °C | CCNC(=S)Nc1ccc2ncc(-c3cnn(Cc4ccccc4)c3)nc2n1 [Compound 45, 1-[3-(1-Benzyl-1H-pyrazol-4-yl)-pyrido[2,3-b]pyrazin-6-yl]-3-ethyl-thiourea] |
| 523 | 391 |  | 242 °C | CCNC(=S)Nc1ccc2ncc(-c3cnn(Cc4ccc(O)c(OC)c4)c3)nc2n1 [Compound 55, 1-Ethyl-3-{3-[1-(4-hydroxy-3-methoxy-benzyl)-1H-pyrazol-4-yl]-pyrido[2,3-b]pyrazin-6-yl}-thiourea] |
| 225 | 208 | 1700 | 257 °C | CCNC(=S)Nc1ccc2ncc(-c3cnn(Cc4ccc(O)cc4)c3)nc2n1 [Compound 210, 1-Ethyl-3-{3-[1-(4-hydroxy-benzyl)-1H-pyrazol-4-yl]-pyrido[2,3-b]pyrazin-6-yl}-thiourea] |
| 492 | 112 | 2560 | 215 to 220 °C | CCNC(=S)Nc1ccc2ncc(-c3cnn(Cc4cccc(OC)c4F)c3)nc2n1 [Compound 29, 1-Ethyl-3-{3-[1-(2-fluoro-3-methoxy-benzyl)-1H-pyrazol-4-yl]-pyrido[2,3-b]pyrazin-6-yl}-thiourea] |
| 400 | 184 | 3010 | 258 to 261 °C | CCNC(=S)Nc1ccc2ncc(-c3cnn(Cc4cccc(C)c4)c3)nc2n1 [Compound 41, 1-Ethyl-3-{3-[1-(3-methyl-benzyl)-1H-pyrazol-4-yl]-pyrido[2,3-b]pyrazin-6-yl}-thiourea] |
| 225 | 180 | 2110 |  | CCNC(=S)Nc1ccc2ncc(-c3cnn(Cc4cccc(S(C)(=O)=O)c4)c3)nc2n1 [Compound 65, 1-Ethyl-3-{3-[1-(3-methanesulfonyl-benzyl)-1H-pyrazol-4-yl]-pyrido[2,3-b]pyrazin-6-yl}-thiourea] |
| 112 | 82 | 1650 | 213 °C | CCNC(=S)Nc1ccc2ncc(-c3cnn(Cc4ccc(OC)c(OC)c4)c3)nc2n1 [Compound 28, 1-{3-[1-(3,4-Dimethoxy-benzyl)-1H-pyrazol-4-yl]-pyrido[2,3-b]pyrazin-6-yl}-3-ethyl-thiourea] |
| 43 | 274 | 1980 | 205 °C | CCNC(=O)Nc1ccc2ncc(-c3cnn(Cc4ccc(OC)c(OC)c4)c3)nc2n1 [Compound 42, 1-{3-[1-(3,4-Dimethoxy-benzyl)-1H-pyrazol-4-yl]-pyrido[2,3-b]pyrazin-6-yl}-3-ethyl-urea] |
| 336 | 168 | 2570 | 217 to 220 °C | CCNC(=S)Nc1ccc2ncc(-c3cnn(Cc4cccc(OC)c4)c3)nc2n1 [Compound 40, 1-Ethyl-3-{3-[1-(3-methoxy-benzyl)-1H-pyrazol-4-yl]-pyrido[2,3-b]pyrazin-6-yl}-thiourea] |
|  |  |  | 237 °C | CCNC(=O)Nc1ccc2ncc(-c3cnn(Cc4ccc(O)c(OC)c4)c3)nc2n1 [Compound 54, 1-Ethyl-3-{3-[1-(4-hydroxy-3-methoxy-benzyl)-1H-pyrazol-4-yl]-pyrido[2,3-b]pyrazin-6-yl}-urea] |
|  |  |  | 215 °C | CCNC(=S)Nc1ccc2ncc(-c3cnn(Cc4cccc(N(C)C)c4)c3)nc2n1 [Compound 37, 1-{3-[1-(3-Dimethylamino-benzyl)-1H-pyrazol-4-yl]-pyrido[2,3-b]pyrazin-6-yl}-3-ethyl-thiourea] |
